According to article PMC6152226, “Composition and Antioxidant, Antienzymatic and Antimicrobial Activities of Volatile Molecules from Spanish Salvia lavandulifolia (Vahl) Essential Oils” (Molecules : A Journal of Synthetic Chemistry and Natural …, 2017):
In brackets after ≈: the same amount, converted by molar mass. Several values for one entry are separate records, joined by “and”; a condition that tells them apart may be missing. Equal entries are not always repeated. Where two headings read alike, the source gives them in different places.

Assays:
[1] = test system: Escherichia coli ATCC 8739; test: Broth microdilution MIC and MBC; assay type: cell-based
Description: (§1) The following test microorganisms used in this work were acquired from Sigma-Aldrich: Pseudomonas aeruginosa ATCC 9027, Escherichia coli ATCC 8739, Staphylococcus aureus ATCC 6538, and Candida albicans ATCC 10231. The stock cultures were preserved in TSB or YPD with 15% glycerol, for bacteria and yeast cells, respectively, at −80 °C. Isolated colonies from an 18- to 24-h agar plate were transferred to MHB for bacteria and RPMI-1640 for C. albicans.
(§2) MIC were determined using the broth microdilution method in 96-well microplates, according to the M07-A10 [69] standard for bacteria and the M27-A3 [70] for Candida. Briefly, two-fold dilutions of a 40 µL/mL SlEOs were prepared to obtain a final concentration range of 0.08–20 µL/mL with 0.5% Tween®80 and 2.5% DMSO. The antimicrobial activities of main compounds were also tested in the concentration range of 0.12–15 mM with 0.5% Tween®80 and 2.5% DMSO as solvent. The final strain concentration was 5 × 10^5 CFU/mL in MHB for the bacteria and 0.5−2.5 × 10^3 in RPMI-1640 for the yeast. These plates were incubated for 24 h for bacteria and 48 h for Candida, both at 35 ± 1 °C, under aerobic conditions on a plate shaker at 100 rpm. Streptomycin (0.06–8.00 µg/mL) and fluconazole (0.13–16 µg/mL) were used as reference antibacterial and antifungal compound, respectively. […] MIC is defined as the lowest concentration of EO or individual compound with no visible growth of microorganisms, at the end of the incubation period. […] All determinations were carried out in triplicate.

[2] = test system: Staphylococcus aureus ATCC 6538; test: Broth microdilution MIC and MBC; assay type: cell-based
Description: as §1, §2

[3] = Chelating power (ChP) method; details: individual compounds; maximum assay concentration 100 mM
Description: (§3) Five antioxidant methods were performed with SlEOs and their main individual compounds in triplicate. In the oxygen radical absorbance capacity (ORAC) assay, peroxyl radicals are produced by 2,2′-Azobis(2-methylpropionamidine) dihydrochloride (AAPH), which reacts with fluorescein giving a non-fluorescent compound [61]. The antioxidants are able to scavenge these peroxyl radicals. Trolox was used as the reference antioxidant. The 2,2-diphenyl-1-picrylhydrazyl (DPPH) and 2,2′-azino-bis(3-ethylbenzothiazoline-6-sulphonic acid) (ABTS) methods measure the bleaching produced by the reduction of the coloured DPPH and ABTS radicals. Trolox was used as the reference antioxidant. The RdP method measure the ability to reduce ferric ions, according to the method of Oyaizu. Ascorbic acid was the reference antioxidant used in this method. The ChP method measured the ability to chelate Fe^2+ ion, following the method of Miguel et al.. EDTA was used as reference antioxidant. The SlEOs were diluted in 100% ethanol in the DPPH, ABTS, RdP and ChP methods, whereas in the ORAC method, SlEOs were diluted in 15% ethanol to obtain a final concentration of 5% ethanol in the reaction medium. All measurements were made at the end-point of the reaction, except in the ORAC method (Figure S5).

[4] = Reducing power (RdP) method; details: individual compounds; maximum assay concentration 100 mM
Description: as §3

[5] = test system: Candida albicans ATCC 10231; test: Broth microdilution MIC and MFC; assay type: cell-based
Description: as §1, §2

ABTS radical method = details: individual compounds; maximum assay concentration 100 mM
Description: as §3

[6] = Oxygen radical absorbance capacity (ORAC) assay; details: individual compounds, maximum assay concentration 100 mM
Description: as §3

LOX = target: T1, LOX (Glycine max, UniProt P08170); test: LOX inhibition assay; assay type: biochemical, Glycine max (soybean); details: for DI (%) of LOX: at 514.2 µg/mL, could not reach 50% inhibition
T1 construct: purchased Sigma-Aldrich
Description: A LOX preparation from Glycine max (soybean) was acquired from Sigma-Aldrich. LOX inhibitory activity was determined as previously reported, based on the absorption at 234 nm of the hydroperoxyde conjugated dienes (ε = 25,000 M^−1 cm^−1), which are generated from the oxidation of linoleic acid in the presence of oxygen and LOX. This assay was carried out on a double beam Lambda 35 spectrophotometer (PerkinElmer, Madrid, Spain) with the UV-Winlab software, at 25 °C.
(§4) The DI in both antienzymatic assays were calculated using Equation (1):(1) DI (%)= ν0−νi/ν0 × 100 where v0 and v1 are the steady state rates without and with inhibitor, respectively. The inhibitions of LOX were reported as DI at 150 µg/mL of each SlEO. […] To calculate the IC50 values, data of DI (%) of seven different concentrations of each SlEO were plotted and fitted by non-linear regression according to Equation (2) using Sigma Plot software (systatsoftware.com) (Figure S6). The inhibitions of LOX and AChE by individual compounds were reported as IC50 or DI, depending on their inhibition capacities and solubilities.
(§5) (2) DI (%)= DImax [I]0/IC50+ [I]0

DPPH radical method = details: individual compounds; maximum assay concentration 100 mM
Description: as §3

AChE VI-S = target: T2, AChE VI-S (Electrophorus electricus, UniProt O42275); test: biochemical; details: for concentration at which 15% inhibition of AChE reached: IC50 not calculable due to low water solubility
T2 construct: purchased Sigma-Aldrich
Description: AChE VI-S from Electrophorus electricus was purchased from Sigma-Aldrich. AChE inhibitory activity was measured in triplicate using a 96-well microplate reader at 25 °C, according to Ellman’s method. This enzyme hydrolyzes acetylthiocholine to acetate and thiocholine, which reacts with 5,5-dithio-bis-(2-nitrobenzoic acid) (DTNB) producing a coloured compound with absorbance at 412 nm. The reaction was measured for 10 min at 25 °C, using a 96-well microplate reader. SlEOs were diluted in 15% ethanol, to obtain a final concentration of 5% ethanol in the reaction medium.
as §4, §5

T2 sequence (O42275 24-633): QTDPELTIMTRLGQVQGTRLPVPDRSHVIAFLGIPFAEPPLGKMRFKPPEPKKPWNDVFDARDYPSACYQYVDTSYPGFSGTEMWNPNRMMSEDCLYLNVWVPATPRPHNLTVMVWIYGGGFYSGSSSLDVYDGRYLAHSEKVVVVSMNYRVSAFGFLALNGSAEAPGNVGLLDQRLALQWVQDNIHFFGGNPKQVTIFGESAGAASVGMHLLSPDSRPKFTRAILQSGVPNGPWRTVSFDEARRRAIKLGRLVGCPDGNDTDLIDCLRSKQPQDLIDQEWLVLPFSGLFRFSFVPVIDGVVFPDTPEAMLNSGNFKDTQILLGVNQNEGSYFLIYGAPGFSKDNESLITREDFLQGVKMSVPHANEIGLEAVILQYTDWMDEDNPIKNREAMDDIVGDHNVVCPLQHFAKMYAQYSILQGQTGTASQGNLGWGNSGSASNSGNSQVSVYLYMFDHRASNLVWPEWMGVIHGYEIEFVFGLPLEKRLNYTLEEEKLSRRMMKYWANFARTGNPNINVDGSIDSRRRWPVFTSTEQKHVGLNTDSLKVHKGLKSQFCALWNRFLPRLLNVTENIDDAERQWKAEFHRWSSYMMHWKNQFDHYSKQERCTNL
T1 sequence (P08170 whole entry): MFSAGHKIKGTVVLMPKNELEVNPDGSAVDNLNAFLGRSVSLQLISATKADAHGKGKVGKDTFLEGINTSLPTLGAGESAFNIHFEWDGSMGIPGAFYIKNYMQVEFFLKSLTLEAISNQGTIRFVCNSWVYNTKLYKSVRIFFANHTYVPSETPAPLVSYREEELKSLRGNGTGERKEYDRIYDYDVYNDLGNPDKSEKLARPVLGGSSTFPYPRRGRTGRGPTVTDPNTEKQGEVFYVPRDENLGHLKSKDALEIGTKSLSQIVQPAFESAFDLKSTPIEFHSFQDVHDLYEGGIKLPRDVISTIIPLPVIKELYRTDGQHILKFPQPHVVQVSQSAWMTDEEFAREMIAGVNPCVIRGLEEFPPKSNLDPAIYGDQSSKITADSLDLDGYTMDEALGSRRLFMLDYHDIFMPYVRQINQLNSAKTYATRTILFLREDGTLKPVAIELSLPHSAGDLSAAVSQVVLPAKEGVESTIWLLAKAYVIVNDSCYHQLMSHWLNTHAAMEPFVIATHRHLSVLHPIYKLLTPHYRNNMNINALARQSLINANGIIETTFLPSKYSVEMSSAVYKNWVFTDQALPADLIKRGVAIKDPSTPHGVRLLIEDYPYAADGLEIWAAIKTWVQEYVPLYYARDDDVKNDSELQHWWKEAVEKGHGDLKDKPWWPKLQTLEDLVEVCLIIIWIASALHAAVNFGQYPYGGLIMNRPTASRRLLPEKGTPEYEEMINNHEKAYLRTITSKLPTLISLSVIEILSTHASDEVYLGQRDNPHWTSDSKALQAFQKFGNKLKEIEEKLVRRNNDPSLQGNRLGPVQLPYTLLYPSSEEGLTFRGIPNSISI

Compound	MIC ([1]; ATCC8739, 24 h, read-out: MIC)	MBC ([1]; ATCC8739, read-out: MBC)	MIC ([2]; ATCC6538, 24 h, read-out: MIC)	MBC ([2]; ATCC6538, read-out: MBC)	ChP [3]	RdP [4]	MIC ([5]; ATCC10231, 48 h, read-out: MIC)	MFC ([5]; ATCC10231, read-out: MFC)	ABTS (ABTS radical method)	ORAC [6]	DPPH (DPPH radical method)	DI (%) of LOX (LOX)	other results
CC(=O)OC1CC2CCC1(C)C2(C)C (stereo not drawn) [Bornyl acetate]	> 2900 µg/mL	> 2900 µg/mL	2900 µg/mL	> 2900 µg/mL	N/D (Activity lower than 0.05 units at a maximum assay concentration of 100 mM)	N/D (Activity lower than 0.05 units at a maximum assay concentration of 100 mM)	> 2900 µg/mL	> 2900 µg/mL	N/D (Activity lower than 0.05 units at a maximum assay concentration of 100 mM)	N/D (Activity lower than 0.05 units at a maximum assay concentration of 100 mM)	N/D (Activity lower than 0.05 units at a maximum assay concentration of 100 mM)		IC50 (LOX): 380 µM
CC12CCC(CC1)C(C)(C)O2 [1,8-Cineole]	> 2300 µg/mL	> 2300 µg/mL	> 2300 µg/mL	> 2300 µg/mL	1.1 ± 0.1 µmol EDTAE/mmol X	N/D (Activity lower than 0.05 units at a maximum assay concentration of 100 mM)	> 2300 µg/mL	> 2300 µg/mL	N/D (Activity lower than 0.05 units at a maximum assay concentration of 100 mM)	N/D (Activity lower than 0.05 units at a maximum assay concentration of 100 mM)	N/D (Activity lower than 0.05 units at a maximum assay concentration of 100 mM)	30.9 ± 1.1%	IC50 (AChE VI-S): 228 µM and 227 µM; ORAC ([6]; listed as 1,8-cineole): did not show any ORAC antioxidant activity
C=CC(C)(O)CCC=C(C)C (stereo not drawn) [Linalool]	1100 µg/mL (≈ 7.13 mM)	2300 µg/mL (≈ 14.9 mM)	600 µg/mL (≈ 3.89 mM)	1100 µg/mL (≈ 7.13 mM)	96.9 ± 5.8 µmol EDTAE/mmol X	N/D (Activity lower than 0.05 units at a maximum assay concentration of 100 mM)	2300 µg/mL (≈ 14.9 mM)	2300 µg/mL (≈ 14.9 mM)	0.1 ± 0.0 µmol TE/mmol X	341.9 ± 18.5 µmol TE/mmol X	N/D (Activity lower than 0.05 units at a maximum assay concentration of 100 mM)		IC50 (LOX): 3350 µM
CC1=CCC2CC1C2(C)C (stereo not drawn) [α-Pinene]	500 µg/mL (≈ 3.67 mM)	1000 µg/mL (≈ 7.34 mM)	2100 µg/mL (≈ 15.4 mM)	> 2100 µg/mL	16.6 ± 1.1 µmol EDTAE/mmol X	N/D (Activity lower than 0.05 units at a maximum assay concentration of 100 mM)	500 µg/mL (≈ 3.67 mM)	500 µg/mL (≈ 3.67 mM)	N/D (Activity lower than 0.05 units at a maximum assay concentration of 100 mM)	N/D (Activity lower than 0.05 units at a maximum assay concentration of 100 mM)	N/D (Activity lower than 0.05 units at a maximum assay concentration of 100 mM)		IC50 (AChE VI-S): 3270 µM
C=C(C)[C@H]1CC=C(C)CC1 [Limonene]					5.9 ± 0.4 µmol EDTAE/mmol X	N/D (Activity lower than 0.05 units at a maximum assay concentration of 100 mM)			0.6 ± 0.0 µmol TE/mmol X	128.0 ± 10.8 µmol TE/mmol X	N/D (Activity lower than 0.05 units at a maximum assay concentration of 100 mM)		MBC [1]: 2000 µg/mL (≈ 14.7 mM); MIC ([1]; 24 h): 2000 µg/mL (≈ 14.7 mM); MBC [2]: 300 µg/mL (≈ 2.2 mM); MIC ([2]; 24 h): 300 µg/mL (≈ 2.2 mM); MFC [5]: 1000 µg/mL (≈ 7.34 mM); MIC ([5]; 48 h): 1000 µg/mL (≈ 7.34 mM); IC50LOX (LOX): 116.1 ± 3.3 µg/mL (≈ 0.852 mM)
CC1=CC[C@@H](C(C)(C)O)CC1 [α-Terpineol]	2400 µg/mL (≈ 15.6 mM)	2400 µg/mL (≈ 15.6 mM)	600 µg/mL (≈ 3.89 mM)	1100 µg/mL (≈ 7.13 mM)	4.9 ± 0.3 µmol EDTAE/mmol X	N/D (Activity lower than 0.05 units at a maximum assay concentration of 100 mM)	> 2400 µg/mL	> 2400 µg/mL	0.2 ± 0.0 µmol TE/mmol X	310.0 ± 16.6 µmol TE/mmol X	N/D (Activity lower than 0.05 units at a maximum assay concentration of 100 mM)	17.4 ± 0.2%	
C=C1C2CCC(C2)C1(C)C (stereo not drawn) [Camphene]					1.6 ± 0.1 µmol EDTAE/mmol X	0.5 ± 0.0 µmol AAE/mmol X			0.1 ± 0.0 µmol TE/mmol X	N/D (Activity lower than 0.05 units at a maximum assay concentration of 100 mM)	N/D (Activity lower than 0.05 units at a maximum assay concentration of 100 mM)		MBC ([1]; ATCC8739): > 2000 µg/mL; MIC ([1]; ATCC8739, 24 h): > 2000 µg/mL; MBC ([2]; ATCC6538): > 2000 µg/mL; MIC ([2]; ATCC6538, 24 h): > 2000 µg/mL; concentration at which 15% inhibition of AChE reached (AChE VI-S): 42.4 ± 3.7 µg/mL; MFC ([5]; ATCC10231): > 2000 µg/mL; MIC ([5]; ATCC10231, 48 h): > 2000 µg/mL
CC1=CCC(O)(C(C)C)CC1 (stereo not drawn) [Terpinen-4-ol]	2300 µg/mL (≈ 14.9 mM)	2300 µg/mL (≈ 14.9 mM)	1100 µg/mL (≈ 7.13 mM)	2300 µg/mL (≈ 14.9 mM)	1.7 ± 0.1 µmol EDTAE/mmol X	N/D (Activity lower than 0.05 units at a maximum assay concentration of 100 mM)	> 2300 µg/mL	> 2300 µg/mL	0.3 ± 0.0 µmol TE/mmol X	356.0 ± 13.6 µmol TE/mmol X	N/D (Activity lower than 0.05 units at a maximum assay concentration of 100 mM)	29.6 ± 1.0%	concentration at which 15% inhibition of AChE reached (AChE VI-S): 582.4 ± 38.1 µg/mL
